Data set [1] is described as follows: Dielectric constants of sunscreen ingredients at 25° C. The class given is physicochemical. Conditions: for Dielectric Constant at 25° C. (ε): neat ingredient; for Dielectric Constant at 25° C. (ε), estimated value: marked estimated. An excerpt: A step of determining the polarity of a mixture or an emulsion can be performed in various ways. For example, determining a polarity can include measuring a property that is a function of polarity, such as a dielectric constant. Measurement of a dielectric constant of a liquid can be performed by various sensors, such as immersion probes, flow-through probes, and cup-type probes, attached to various meters, such as those available from the Brookhaven Instruments Corporation of Holtsville, N.Y. (e.g., model BI-870) and the Scientifica Company of Princeton, N.J. (e.g. models 850 and 870). For consistency of comparison, preferably all measurements for a particular filter system are performed at substantially the same sample temperature, e.g., by use of a water bath. Generally, the measured dielectric constant of a substance will increase at lower temperatures and decrease at higher temperatures.
A mixture of solvent system and filter system, in accordance with one preferred embodiment, are combined with well-known cosmetically-acceptable additives, such as moisturizers, emollients, solvents, co-solvents, lubricants, thickeners, emulsifiers and/or other common cosmetic formulation additives for solubility of sunscreen active compounds, emulsification, thickening and to provide other skin enhancement, e.g., moisturizing properties. The compositions can be produced as oily lotions, gels, solid sticks, emulsions, aerosols, and all other forms of cosmetic compositions. The dielectric constants of various sunscreen additive materials are well known, see, Dielectric Constant Reference Guide of ASI Instruments, Inc., pages 1-64, (http://asiinstruments.com/dcl.html), hereby incorporated herein by reference.

Data set [2] is described as follows: Solvency testing of solvents for oxybenzone. The class given is physicochemical. Particulars: solute oxybenzone dissolved in the named solvent. From the text:
(§1) Examples of crystalline UV filters include oxybenzone, avobenzone, and octyl triazone (sold under the trade name UVINUL T-150 by BASF Corporation) and methylbenzilidene camphor.

A short description of data set [3]: Solvency testing of solvents for avobenzone. Format: physicochemical. Conditions: solute avobenzone dissolved in the named solvent.
Source text: as §1

The nature of data set [4]: Solvency testing of solvents for octyl triazone. Format: physicochemical. Particulars: solute octyl triazone dissolved in the named solvent.
Source text: as §1

The nature of data set [5]: Solvency for crystalline UV filters, comparison with traditional solvents. The class given is physicochemical. Conditions: compared to traditional solvents used in sunscreen compositions.
Source text: as §1

For data set [6] the following is noted: marked literature value, cited from earlier work.

Values joined by “and” are separate entries in the source; they are usually repeats but may differ in a detail not shown here. Equal entries are not always repeated. Where two headings read alike, the source gives them in different places. Marks after values point to notes of the source that are not given here.

Turning to Octyldodecyl neopentanoate, the “Dielectric Constant at 25° C. (ε)” value in data set [1] is reported as 3.04.
As for `CCCCCCCCCCCCCCCC(=O)OCC(CC)CCCC` (centres unmarked) [Ethylhexyl palmitate], in data set [1], the “Dielectric Constant at 25° C. (ε)” value was 3.06.
For “isododecyl alcohol dimer with isopherone diisocyanate (IPDI) [Isododecyl alcohol dimer with IPDI]”, the “Dielectric Constant at 25° C. (ε), estimated value” is reported as ~10 (estimated.) in data set [1] and ~10* in data set [1] (listed as isododecyl alcohol dimer w/IPDI).
As to `CCCCCCCCCCCCCCCC(=O)OC(C)C` [Isopropyl palmitate], in data set [1], the “Dielectric Constant at 25° C. (ε)” value is 3.20.
Take `CC(C)CCOC(=O)CC(O)C(=O)OCCC(C)C` (centres unmarked) [Diisoamyl malate]: the “Dielectric Constant at 25° C. (ε)” value in data set [1] was determined as 7.42.
For the compound `COc1ccc(C(=O)CC(=O)c2ccc(C(C)(C)C)cc2)cc1` [Avobenzone, 4-(1,1-dimethylethyl)-4′-methoxydibenzoylmethane, reference compound], the “Dielectric Constant at 25° C. (ε), estimated value” is ~10 (estimated.) in data set [1] and ~10* in data set [1] (listed as avobenzone).
For PPG-2 myristyl ether propionate, the “Dielectric Constant at 25° C. (ε)” value in data set [1] is recorded as 3.88.
As for `CCCCC(CC)COC(=O)C(C#N)=C(c1ccccc1)c1ccccc1` (centres unmarked) [Octocrylene, 2-ethylhexyl-2-cyano-3,3 diphenylacrylate, reference compound], the “Solvency for Oxybenzone” value in data set [2] was found to be 32% wt. %. Further, the “Solvency for Avobenzone” value in data set [3] is recorded as 27% wt. %. Also, in data set [4], the “Solvency for Octyl triazone” value worked out at 1% wt. %. Moreover, the “Dielectric Constant at 25° C. (ε)” value in data set [1] was found to be 11.08.
With Isododecyl alcohol dimer with HDI, the figures for the “Dielectric Constant at 25° C. (ε), estimated value” in data set [1] and in data set [1] (listed as isododecyl alcohol dimer w/HDI) were ~10 (estimated.) and ~10*, respectively.
On to `CCCCCCCCCCCCCCCCCC(C)C` [Isoeicosane], for which the “Dielectric Constant at 25° C. (ε)” value in data set [1] was 2.04.
The same measure, in the same setting: in the case of `CCCCCCCCOC(=O)CC(O)C(=O)OCCCCCCCC` (centres unmarked) [Dioctyl malate] it was 4.74 and 5.78.
As for `CCCCC(CC)COC(=O)C=Cc1ccc(OC)cc1` (centres unmarked) [Ethylhexyl methoxycinnamate, 2-ethylhexyl paramethoxycinnamate, reference compound], the “Solvency for Oxybenzone” value in data set [2] is listed as 24% wt. %. The “Solvency for Avobenzone” value in data set [3] amounted to 17% wt. %. In data set [4], the “Solvency for Octyl triazone” value turned out to be 15% wt. %. In data set [1], the “Dielectric Constant at 25° C. (ε)” value is on record as 5.98.
Consider `CCCCCCCCCCCCCC(=O)OC(C)C` [Isopropyl myristate], for which the “Solvency for Oxybenzone” value in data set [2] turned out to be 20% wt. %. In addition, the “Solvency for Avobenzone” value in data set [3] worked out at 15% wt. %. Also, the “Solvency for Octyl triazone” value in data set [4] is listed as below 5% wt. %. The “Dielectric Constant at 25° C. (ε)” value in data set [1] stood at 3.24.
For `CCCCCCCCCCCCCCCCCC(=O)OCC(CC)CCCC` (centres unmarked) [Ethylhexyl stearate], the “Dielectric Constant at 25° C. (ε)” value in data set [1] is 3.05.
For `CCCCCCC(CCCC)COC(=O)CC(O)C(=O)OCC(CCCC)CCCCCC` (centres unmarked) [Dibutyloctyl malate, bis(2-butyloctyl)malate], the “Dielectric Constant at 25° C. (ε)” value in data set [1] amounted to 4.65.
With `CCCCCCCCCC(=O)N(C)C` [N,N-dimethyldecanamide], in data set [2], the “Solvency for Oxybenzone” value worked out at 38% wt. %. Also, the “Solvency for Avobenzone” value in data set [3] turned out to be 37% wt. %. Moreover, the “Solvency for Octyl triazone” value in data set [4] came to 37% wt. %. For the same compound, the “Dielectric Constant at 25° C. (ε)” value in data set [1] is listed as 12.43. Moreover, in data set [5], the “ability to solvate crystalline UV filters (in words)” value is “far superior”.
As for `COc1ccc(C(=O)c2ccccc2)c(O)c1` [Benzophenone-3, benzophenone-3], the “Dielectric Constant at 25° C. (ε), literature value” in data set [6] (listed as benzophenone-3) is 13^†; in data set [6] it was 13.
As to `O` [Water], the “Dielectric Constant at 25° C. (ε)” value in data set [1] came out at 80.
For `CCCCC(CC)COC(=O)c1ccc2cc(C(=O)OCC(CC)CCCC)ccc2c1` (centres unmarked) [Diethylhexyl 2,6-naphthalate], the “Dielectric Constant at 25° C. (ε)” value in data set [1] is 4.34.
For the compound Diethylhexyl malate, the “Solvency for Oxybenzone” value in data set [2] was 19% wt. % and 15% wt. %. Also, in data set [3], the “Solvency for Avobenzone” value is 12.5% wt. % and 15% wt. %. For the same compound, in data set [4], the “Solvency for Octyl triazone” value is 5% wt. % and <5% wt. %. For the same compound, the “Dielectric Constant at 25° C. (ε)” value in data set [1] is 4.74 and 5.88; in data set [1] (listed as diethylhexyl malate), 5.88.
Take `CCCCC(CC)COC(=O)c1ccccc1O` (centres unmarked) [Ethylhexyl salicylate, 2-ethylhexyl salicylate, reference compound]: the “Solvency for Oxybenzone” value in data set [2] is on record as 18% wt. %. In addition, in data set [3], the “Solvency for Avobenzone” value is reported as 16% wt. %. For the same compound, the “Solvency for Octyl triazone” value in data set [4] is on record as 5% wt. %. The figures for the “Dielectric Constant at 25° C. (ε)” value in data set [1] and in data set [1] (listed as octyl salicylate) were 6.20 and 6.2, respectively.
In the case of `CCCCC(CC)COC(=O)CCCCC(=O)OCC(CC)CCCC` (centres unmarked) [Diethylhexyl adipate], the “Solvency for Oxybenzone” value in data set [2] was found to be 20% wt. %. In addition, the “Solvency for Avobenzone” value in data set [3] stood at 10% wt. %. In addition, the “Solvency for Octyl triazone” value in data set [4] was below 5% wt. %. For the same compound, in data set [1], the “Dielectric Constant at 25° C. (ε)” value is given as 4.21.
